Source: patent US20070123555A1, “PREVENTION AND TREATMENT OF HEARING DISORDERS” (Cypress Bioscience, Inc., priority 2005, published 2007)
“Also recorded” adds a separate entry of the source. Where two headings read alike, the source gives them in different places.

Tests used:
cochlear sensory cells = conditions: perfusion into the cochlea via osmotic minipump; cited from earlier work
[1] = tested on: permanent threshold shift; conditions: 6.7 mmol daily, versus placebo (sodium aspartate); rifle noise six days per week for eight weeks; cited from earlier work
CYP2D6 [2] = molecular target: CYP2D6 (Homo sapiens, UniProt P10635); conditions: cited from earlier work
CYP2D6 [3] = conditions: in vivo; cited from earlier work
[4] = tested on: noise-induced temporary threshold shift; conditions: daily ingestion of 122 mg for 10 days; cited from earlier work
[5] = tested on: outer hair cells of cochlear explants; assay: Cochlear explant cultures challenged with cisplatin, outer hair cell damage; assay type: cell-based, Sprague-Dawley rats
From the text: Explants of sensory epithelium from the basal turn of postnatal day 5 (p5) Sprague-Dawley rats were isolated using the methods of Van De Water and Sobkowicz (Van d Water T., Ruben R. J. (1974) “Growth of the inner ear in organ culture,” Ann. Otol. Rhinol. Laryngol., 83:1-16; Sobkowicz H. M., Loftus J. M., Slapnick S. M. (1993) “Tissue culture of the organ of Corti.,” Acta. Suppl. 502:3-36). Explants were maintained in Dulbecco's Modified Eagle's medium with 10% fetal bovine serum and 30 U/ml penicillin. HEPES buffer was added to a concentration of 25 mM and the glucose concentration increased to 6 mg/ml to enhance neuronal survival. Each 15 mm dish containing 250 μl of medium was maintained in an incubator at 37° C. with 5% CO2 and 95% humidity.
Toxicity-inducers (gentamicin or cisplatin, 1-100 μM) were exposed to the medium 12-24 h following plating for 48 h. Concentrations of gentamicin or cisplatin were employed that produced approximately 50% loss of outer hair cells, which permitted for assessments of either increases or decreases in outer hair cell damage.
Test compounds were applied to the cultures for 12 h, and then challenged with medium containing gentamicin or cisplatin plus the test compound for an additional 48 h, followed by fixation and evaluation.
At the end of culture, free floating explants were fixed with 4% paraformaldehyde and 1% glutaraldehyde in phosphate-buffered saline. The explants were then permeabilized with 1 % Tween-20 in phosphate-buffered saline. The explants were then stained with conjugated phalloidin-rhodamine probe in phosphate-buffered saline, washed twice, and mounted between two cover slips in a 1:3 mixture of phosphate-buffered saline/glycerol. Explants were imaged by light and fluorescence microscopy and by laser confocal microscopy to assess the degree of damage to the outer hair cells.
The results of one such test, employing cisplatin as an ototoxic agent and nicergoline as a test compound, are shown in FIG. 1. The control cultures contained no cisplatin and no nicergoline. […]

cochlea = conditions: local administration; cited from earlier work

CYP2D6 (Homo sapiens, UniProt P10635), sequence (P10635 whole entry): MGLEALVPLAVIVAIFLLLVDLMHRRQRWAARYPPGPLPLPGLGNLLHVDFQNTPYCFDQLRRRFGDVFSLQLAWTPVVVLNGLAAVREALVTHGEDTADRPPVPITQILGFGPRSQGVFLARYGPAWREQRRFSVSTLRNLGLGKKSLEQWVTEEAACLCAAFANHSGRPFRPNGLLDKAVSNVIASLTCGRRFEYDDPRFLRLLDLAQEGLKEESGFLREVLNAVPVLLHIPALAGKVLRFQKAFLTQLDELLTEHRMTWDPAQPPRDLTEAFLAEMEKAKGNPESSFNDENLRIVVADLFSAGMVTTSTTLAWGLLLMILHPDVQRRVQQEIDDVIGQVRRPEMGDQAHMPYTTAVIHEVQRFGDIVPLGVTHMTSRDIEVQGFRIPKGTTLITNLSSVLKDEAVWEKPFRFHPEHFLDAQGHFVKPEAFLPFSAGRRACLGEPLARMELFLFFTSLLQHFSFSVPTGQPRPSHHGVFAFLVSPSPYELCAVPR

Nc1nc2ccc(OC(F)(F)F)cc2s1 [riluzole, 2-amino-6-trofluoromethoxybenzothiazole]
effect on cochlear damage after acoustic trauma (cochlear sensory cells): prevents mitochondrial damage and subsequent translocation of cytochrome c, DNA fragmentation and hair cell degeneration

N[C@@H](CC(=O)[O-])C(=O)[O-].[Mg+2] [magnesium aspartate]
effect on permanent threshold shift [1]: significant effect on permanent threshold shift

CO[C@]12C[C@@H](CO)CN(C)[C@@H]1Cc1cn(C)c3cccc2c13 [MMDL, 1-methyl-10-α-methoxy-9,10-dihydrolysergol]
level in blood plasma after nicergoline dosing (CYP2D6 [2]; in vivo): very little MMDL | level in plasma after nicergoline dosing (CYP2D6 [3]): relatively high concentrations of MMDL

CO[C@]12C[C@@H](CO)CN(C)[C@@H]1Cc1c[nH]c3cccc2c13 [MDL, 10-α-methoxy-9,9-dihydrolysergol]
level in plasma after nicergoline dosing (CYP2D6 [3]): low concentration of MDL

[Mg] [magnesium]
effect on noise-induced temporary threshold shift [4]: protect against noise-induced temporary threshold shift

CO[C@]12C[C@@H](COC(=O)c3cncc(Br)c3)CN(C)[C@@H]1Cc1cn(C)c3cccc2c13 [nicergoline]
concentrations at which nicergoline itself is non-toxic to cochlear cultures ([5]; 0 μg/ml cisplatin, 10 μM nicergoline, 5 cultures): up to 10 μM | protection against toxic effects of cisplatin ([5]; 2 μg/ml cisplatin, nicergoline 10 nM, 1 μM or 10 μM, FIG. 1): protects cochlear ear explants from chemically-induced damage by cisplatin; also recorded: exerting protection against the toxic effects of cisplatin at all tested concentrations | concentration providing maximum protection from cisplatin-induced cell death ([5]; cisplatin 2 μg/ml (sentence prints 2 μM), test compound 12 h, then with cisplatin 48 h, 5 cultures each): about 1 μM | level in blood plasma after nicergoline dosing (CYP2D6 [2]; individuals having normal CYP2D6 function): almost no detectable nicergoline in blood plasma

CCN(CC)CCn1c(=O)c(Cc2ccc(OC)cc2)nc2ccccc21 [caroverine, 1-[2-(diethylamino)ethyl]-3-[(4-methoxyphenyl)methyl]-2-(1H)-quinoxalinone]
protection of cochlea from noise trauma (cochlea): protection of cochlea from noise trauma
